This note sets out measurements from ChEMBL document CHEMBL5329177, “De novo design of a stapled peptide targeting SARS-CoV-2 spike protein receptor-binding domain” (RSC Med Chem, 2023).

This data set has as its system Vero C1008. Description: Cytotoxicity against African green monkey Vero E6 cells assessed as inhibition of cell growth measured after 48 hrs by MTT assay. It counts as toxicity, cell-based. To be noted: chlorocebus sabaeus, vero c1008, 48 h, dose 0.05-50 µM.

Each structure is given as a SMILES string. Starred links: 1 amine or outer side, 2 acyl side, 3 side chain; linkers in the order of their positions; H or OH if unused. Positions of bridges follow the written chain, without caps; N, C: chain ends. Non-standard residues stand in square brackets, D forms with d. Residues, ends and D or L forms follow the SMILES beside them. X1 = C[C@@](CC=[*:3])(N[*:1])C(=O)[*:2]

For `CSCC[C@@H]1NC(=O)[C@H](CC(N)=O)NC(=O)[C@@H]2CC(=O)NCCCC[C@H](NC(=O)[C@H](Cc3c[nH]c4ccccc34)NC(=O)[C@@H](NC(=O)[C@H](CCCCN)NC(=O)[C@H](Cc3ccc(O)cc3)NC(=O)[C@H](CC(C)C)NC(=O)[C@H](Cc3c[nH]c4ccccc34)NC(=O)[C@H](CCC(=O)O)NC(=O)[C@@H](NC(=O)CNC(C)=O)[C@@H](C)O)C(C)C)C(=O)N[C@@H](C)C(=O)N[C@@H](Cc3ccccc3)C(=O)N[C@@](C)(C/C=C/C[C@@](C)(C(=O)O)NC1=O)C(=O)N2` (Ac-GTEWLYKVWKAF[X1]DNM[X1]-OH; lactam 10-14; staple (E) 13-17), the Activity result is recorded as “Dose-Dependent Effect”.
